Each compound was assayed against T1, PPARγ-RXRα heterodimer (Homo sapiens, UniProt P37231) (assay: PPARγ-RXRα heterodimer ligand activity (luciferase reporter in PPARγ:RXRα:4ERPP/CHO-K1 cells)). Conditions: luciferase induction ratio, 1 day culture, concentration showing 50% of the maximum induction ratio.
T1 construct: expressed in transfected cells; host or cells: CHO-K1
T1 sequence (P37231 1-505): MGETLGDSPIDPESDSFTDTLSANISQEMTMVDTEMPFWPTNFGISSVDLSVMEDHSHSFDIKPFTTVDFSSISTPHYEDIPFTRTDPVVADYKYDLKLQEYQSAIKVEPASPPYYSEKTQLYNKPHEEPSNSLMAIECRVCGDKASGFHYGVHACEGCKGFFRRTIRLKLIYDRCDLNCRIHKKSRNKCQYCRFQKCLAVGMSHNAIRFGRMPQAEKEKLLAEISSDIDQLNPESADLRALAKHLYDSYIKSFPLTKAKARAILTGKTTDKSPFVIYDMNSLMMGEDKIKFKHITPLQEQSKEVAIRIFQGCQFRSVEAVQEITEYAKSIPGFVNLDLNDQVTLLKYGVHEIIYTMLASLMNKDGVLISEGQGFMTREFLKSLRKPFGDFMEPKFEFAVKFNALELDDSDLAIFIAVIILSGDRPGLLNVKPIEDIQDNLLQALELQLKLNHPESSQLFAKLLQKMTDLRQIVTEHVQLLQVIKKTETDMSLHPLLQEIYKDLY
T1 sequence (P19793 1-462 partner): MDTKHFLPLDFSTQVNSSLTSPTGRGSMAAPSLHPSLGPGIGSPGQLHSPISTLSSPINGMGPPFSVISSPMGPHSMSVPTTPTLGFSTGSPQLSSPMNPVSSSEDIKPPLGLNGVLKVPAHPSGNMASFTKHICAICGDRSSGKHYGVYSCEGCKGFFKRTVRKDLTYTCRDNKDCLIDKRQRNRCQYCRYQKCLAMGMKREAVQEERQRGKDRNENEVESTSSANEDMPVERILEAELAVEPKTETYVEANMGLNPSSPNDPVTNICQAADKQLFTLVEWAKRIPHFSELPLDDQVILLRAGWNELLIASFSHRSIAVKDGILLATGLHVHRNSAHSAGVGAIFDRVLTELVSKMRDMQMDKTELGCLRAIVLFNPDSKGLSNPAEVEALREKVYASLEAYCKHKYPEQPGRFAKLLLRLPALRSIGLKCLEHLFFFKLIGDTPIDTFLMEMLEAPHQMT
Type: cell-based
Experimental: PPARγ:RXRα:4ERPP/CHO-K1 cells described in WO03/099793 were cultured in hamF12 medium [manufactured by Life Technologies, Inc., USA] supplemented with 10% fetal bovine serum [manufactured by Life Technologies, Inc., USA], plated on a 96 well white half area plate [manufactured by Corning Coster Corporation, USA] at 1×10^4 cells/well and cultured overnight in a carbon dioxide gas incubator at 37° C.
The medium was removed from the 96 well white half area plate, 45 μl of hamF12 medium containing 0.1% fatty acid-free bovine serum albumin (BSA) and 5 μl of a test compound were added, and the cells were cultured in a carbon dioxide gas incubator at 37° C. for 1 day. The medium was removed, and 20 μl of PicaGene 7.5 (manufactured by Wako Pure Chemical Industries, Ltd.) diluted 2-fold with HBSS (HANKS' BALANCED SALT SOLUTION) [manufactured by BIO WHITTAKER, USA] was added. After stirring, the luciferase activity was measured using a 1420 ARVO Multilabel Counter [manufactured by Perkin Elmer Inc., USA].
The induction ratio was calculated from the luciferase activity of each test compound relative to the luciferase activity of the test compound non-administration group as 1. The concentration of the test compound and the induction ratio were analyzed using PRISM [manufactured by GraphPad Software, Inc., USA] and EC50 value (concentration of compound showing 50% of the maximum induction ratio) of the test compound was calculated.

EC50 | SMILES
24 nM | Cc1nn(C)c(Oc2cc(O[C@@H](C)C(=O)O)c(Cl)cc2Cl)c1C [Example 1, (2S)-2-{2,4-dichloro-5-[(1,3,4-trimethyl-1H-pyrazol-5-yl)oxy]phenoxy}propionic acid]
5 nM | C=Cc1c(C)nn(C)c1Oc1cc(O[C@@H](C)C(=O)O)c(Cl)cc1Cl [Example 14, (2S)-2-{2,4-dichloro-5-[(1,3-dimethyl-4-vinyl-1H-pyrazol-5-yl)oxy]phenoxy}propionic acid]
3.7 nM | C=Cc1c(C(F)(F)F)nn(C)c1Oc1cc(O[C@@H](C)C(=O)O)c(Cl)cc1Cl [Example 20, (2S)-2-(2,4-dichloro-5-{[1-methyl-3-(trifluoromethyl)-4-vinyl-1H-pyrazol-5-yl]oxy}phenoxy)propionic acid]
5.8 nM | C[C@H](Oc1cc(Oc2c3ccccc3nn2C)c(Cl)cc1Cl)C(=O)O [Example 30, (2S)-2-{2,4-dichloro-5-[(2-methyl-2H-indazol-3-yl)oxy]phenoxy}propionic acid]
9.3 nM | C[C@H](Oc1cc(Oc2c3c(nn2C)CCCC3)c(Cl)cc1Cl)C(=O)O [Example 31, (2S)-2-{2,4-dichloro-5-[(2-methyl-4,5,6,7-tetrahydro-2H-indazol-3-yl)oxy]phenoxy}propionic acid]
2.4 nM | C=Cc1c(CCC)nn(C)c1Oc1cc(O[C@@H](C)C(=O)O)c(Cl)cc1Cl [Example 41, (2S)-2-{2,4-dichloro-5-[(1-methyl-3-propyl-4-vinyl-1H-pyrazol-5-yl)oxy]phenoxy}propionic acid]
4.6 nM | C=Cc1c(C(C)C)nn(C)c1Oc1cc(O[C@@H](C)C(=O)O)c(Cl)cc1Cl [Example 43, (2S)-2-{2,4-dichloro-5-[(3-isopropyl-1-methyl-4-vinyl-1H-pyrazol-5-yl)oxy]phenoxy}propionic acid]
13 nM | Cc1c(C(F)(F)F)nn(C)c1Oc1cc(O[C@@H](C)C(=O)O)c(Cl)cc1Cl [Example 74, (2S)-2-(2,4-dichloro-5-{[1,4-dimethyl-3-(trifluoromethyl)-1H-pyrazol-5-yl]oxy}phenoxy)propionic acid]
9.9 nM | CCc1c(C(F)(F)F)nn(C)c1Oc1cc(O[C@@H](C)C(=O)O)c(Cl)cc1Cl [Example 76, (2S)-2-(2,4-dichloro-5-{[4-ethyl-1-methyl-3-(trifluoromethyl)-1H-pyrazol-5-yl]oxy}phenoxy)propionic acid]
2 nM | CCC/C=C/c1c(C)nn(C)c1Oc1cc(O[C@@H](C)C(=O)O)c(Cl)cc1Cl [Example 89, (2S)-2-[2,4-dichloro-5-({1,3-dimethyl-4-[(1E)-1-penten-1-yl]-1H-pyrazol-5-yl}oxy)phenoxy]propionic acid]
25 nM | Cc1nn(C)c(Oc2cc(O[C@@H](C)C(=O)O)c(Cl)cc2Cl)c1/C=N/O [Example 104, (2S)-2-[2,4-dichloro-5-({4-[(E)-(hydroxyimino)methyl]-1,3-dimethyl-1H-pyrazol-5-yl}oxy)phenoxy]propionic acid]
120 nM | Cc1nn(C)c(Oc2cc(O[C@@H](C)C(=O)O)c(Cl)cc2Cl)c1C#N [Example 106, (2S)-2-{2,4-dichloro-5-[(4-cyano-1,3-dimethyl-1H-pyrazol-5-yl)oxy]phenoxy}propionic acid]
10 nM | Cc1nn(C)c(Sc2cc(O[C@@H](C)C(=O)O)c(Cl)cc2Cl)c1C [Example 115, (2S)-2-{2,4-dichloro-5-[(1,3,4-trimethyl-1H-pyrazol-5-yl)thio]phenoxy}propionic acid]
4.1 nM | CON=Cc1c(C)nn(C)c1Oc1cc(O[C@@H](C)C(=O)O)c(Cl)cc1Cl [Example 123, (2S)-2-[2,4-dichloro-5-({4-[(methoxyimino)methyl]-1,3-dimethyl-1H-pyrazol-5-yl}oxy)phenoxy]propionic acid]
3.1 nM | Cc1nn(C)c(Oc2cc(O[C@@H](C)C(=O)O)c(Cl)cc2Cl)c1C=NOCc1ccccc1 [Example 125, (2S)-2-{5-[(4-{[(benzyloxy)imino]methyl}-1,3-dimethyl-1H-pyrazol-5-yl)oxy]-2,4-dichlorophenoxy}propionic acid]
9.9 nM | Cc1nn(C)c(Sc2cc(O[C@@H](C)C(=O)O)c(Cl)cc2Cl)c1C#N [Example 210, (2S)-2-{2,4-dichloro-5-[(4-cyano-1,3-dimethyl-1H-pyrazol-5-yl)thio]phenoxy}propionic acid]
22 nM | Cc1cc(Br)c(O[C@@H](C)C(=O)O)cc1Oc1c(C#N)c(C2CC2)nn1C [Example 256, (2S)-2-{2-bromo-5-[(4-cyano-3-cyclopropyl-1-methyl-1H-pyrazol-5-yl)oxy]-4-methylphenoxy}propionic acid]
17 nM | CCNC(=O)OCCCc1c(C)nn(C)c1Oc1cc(O[C@@H](C)C(=O)O)c(Cl)cc1Cl [Example 298, (2S)-2-(2,4-dichloro-5-{[4-(3-{[(ethylamino)carbonyl]oxy}propyl)-1,3-dimethyl-1H-pyrazol-5-yl]oxy}phenoxy)propionic acid]
